The results in this text go back to patent US20190031618A1, “BENZIMIDAZOLE DERIVATIVES USEFUL AS CB-1 INVERSE AGONISTS” (Janssen Pharmaceutica NV, priority 2015, published 2019).

Each structure is given as a SMILES string.

For assay [1], the target named is Human CB1R (Cannabinoid receptor 1) (Homo sapiens, UniProt P21554). Nature of the assay: CB-1 in vitro cAMP (HTRF) assay. The class given is cell-based. The settings on record: for EC50: HEK cells, cAMP HTRF, 250 nM forskolin, mean where tested more than once, read-out: CB1 HEK_cAMP EC50. Summed up: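 Intracellular cAMP from HTRF ratio (d2-cAMP vs Eu-cryptate anti-cAMP), converted to nM via per-plate standards, in stable human CB1R HEK-293 cells.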
Human CB1R (Cannabinoid receptor 1), sequence (P21554 whole entry): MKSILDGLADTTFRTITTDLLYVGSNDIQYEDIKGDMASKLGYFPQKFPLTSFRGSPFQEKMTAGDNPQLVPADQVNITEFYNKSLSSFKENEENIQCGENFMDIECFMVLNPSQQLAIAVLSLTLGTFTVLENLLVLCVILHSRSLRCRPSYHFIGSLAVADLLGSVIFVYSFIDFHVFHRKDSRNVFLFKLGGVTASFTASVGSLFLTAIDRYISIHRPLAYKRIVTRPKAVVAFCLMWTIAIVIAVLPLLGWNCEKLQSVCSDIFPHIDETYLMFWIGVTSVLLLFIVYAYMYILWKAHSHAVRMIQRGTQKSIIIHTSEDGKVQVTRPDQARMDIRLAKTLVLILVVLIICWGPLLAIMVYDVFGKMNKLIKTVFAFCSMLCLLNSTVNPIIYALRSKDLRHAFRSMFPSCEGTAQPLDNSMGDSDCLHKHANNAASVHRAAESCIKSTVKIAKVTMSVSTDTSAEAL

For assay [2], the target named is Human CB2R (Cannabinoid receptor 2) (Homo sapiens, UniProt P34972). Nature of the assay: CB-2 in vitro cAMP (HTRF) assay. Type of assay: cell-based. The settings on record: for EC50: HEK cells, cAMP HTRF, 250 nM forskolin, mean where tested more than once, read-out: CB2 HEK_cAMP EC50. Summed up: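 HEK-293 cells stably expressing receptor, plated overnight at 4E5 cells/mL, tested with 1/3 serial dilutions of compound in HBSS/HEPES/BSA buffer with 0.5 mM IBMX and forskolin (diluted to 1.5 μM in buffer). cAMP measured by competitive HTRF immunoassay (d2-cAMP, cryptate anti-cAMP), signal inversely proportional to cAMP.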
Human CB2R (Cannabinoid receptor 2), sequence (P34972 whole entry): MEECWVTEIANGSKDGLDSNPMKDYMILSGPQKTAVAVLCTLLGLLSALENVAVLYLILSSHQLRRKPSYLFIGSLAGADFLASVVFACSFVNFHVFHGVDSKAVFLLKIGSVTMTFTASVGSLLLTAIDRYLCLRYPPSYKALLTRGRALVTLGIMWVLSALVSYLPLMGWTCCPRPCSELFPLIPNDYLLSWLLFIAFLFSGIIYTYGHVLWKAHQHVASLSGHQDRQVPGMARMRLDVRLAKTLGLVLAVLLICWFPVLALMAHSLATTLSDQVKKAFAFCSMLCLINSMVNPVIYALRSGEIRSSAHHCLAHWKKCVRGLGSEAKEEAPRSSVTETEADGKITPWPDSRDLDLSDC

The EC50 is the concentration that produces a half-maximal response. Turning to `NC(=O)c1cccc(CN2CCC(n3c(C4CC4)nc4ccc(C(c5ccc(Cl)cc5)c5ccc(Cl)cc5)cc43)CC2)c1` [Example 141], the EC50 is 3.3 nM in assay [1] and over 10000 nM in assay [2].
Consider `COc1ccc(Cn2c(C3CC3)nc3ccc(C(c4ccc(Cl)cc4)c4ccc(Cl)cc4)cc32)cc1` [Example 177], for which the concentration for a half-maximal effect (EC50) in assay [1] worked out at 96.7 nM; in assay [2], 7900 nM.
The corresponding values for `Cc1nc2ccc(C(c3ccc(Cl)cc3)c3nccs3)cc2n1-c1cccc(Cl)c1` (stereo not drawn) [Example 436] are 473 nM and over 10000 nM.
For `Clc1ccc(C(c2ccc3ncn(-c4cccc(Cl)c4)c3c2)c2nccs2)cc1` (stereo not drawn) [Example 435] the same measures were over 10000 nM and over 10000 nM.
For `CC(C)Cc1nc2ccc(C(c3ccc(Cl)cc3)c3nccs3)cc2n1-c1cccc(Cl)c1` (stereo not drawn) [Example 433] the same measures were over 10000 nM and over 10000 nM.
Regarding `O=S(=O)(N1CCC(n2c(CO)nc3ccc(C(O)(c4ccc(Cl)cc4)c4ccc(Cl)cc4)cc32)CC1)C(F)(F)F` [Example 293], the EC50 in assay [1] is 7430 nM; in assay [2] it was over 10000 nM.
With `O=C(O)c1cccc(CN2CCC(n3c(C4CC4)nc4ccc(C(c5ccc(Cl)cc5)c5ccc(Cl)cc5)cc43)CC2)c1F` [Example 85], the figures for the EC50 in assay [1] and in assay [2] were 17.4 nM and 8100 nM, respectively.
For `CCOC(=O)c1nc2ccc(C(c3ccc(Cl)cc3)c3nccs3)cc2n1C1CCN(C(=O)OCC)CC1` (stereo not drawn) [Example 413] the same measures were 315 nM and over 10000 nM.
On to `COc1ccc(-n2c(C3CC3)nc3ccc(C(c4ccc(Cl)cc4)c4ccc(Cl)cc4)cc32)cc1` [Example 179], for which the EC50 in assay [1] was 1.7 nM; in assay [2], over 10000 nM.
For `O=C(NCc1ccccc1)N1CCC(n2c(C3CC3)nc3ccc(C(c4ccc(Cl)cc4)c4ccc(Cl)cc4)cc32)CC1` [Example 75] the same measures were 35.7 nM and 1150 nM.
For `O=S(=O)(N1CCC(n2c(C3CCCO3)nc3ccc(C(c4ccc(Cl)cc4)c4ccc(Cl)cc4)cc32)CC1)C(F)(F)F` (stereo not drawn) [Example 271] the same measures were 2.1 nM and over 10000 nM.
For `Clc1ccc(C(c2ccc3nc(C4CC4)n(CCc4cccc(Cl)c4)c3c2)c2nccs2)cc1` (stereo not drawn) [Example 423] the same measures were 17 nM and over 10000 nM.
Consider `CCOC(=O)N1CCC(n2c(-c3ccc(Cl)cc3)nc3ccc(C(c4ccc(Cl)cc4)c4nccs4)cc32)CC1` (stereo not drawn) [Example 441], for which the EC50 in assay [1] was 2090 nM; in assay [2] it was over 10000 nM.
`O=S(=O)(N1CCC(Cn2c(C3CC3)nc3ccc(C(c4ccc(Cl)cc4)c4nccs4)cc32)CC1)C(F)(F)F` (stereo not drawn) [Example 324]: the 50% effective concentration (EC50) in assay [1] stood at 10.2 nM; in assay [2] it was 3880 nM.
The corresponding values for `O=C(O)c1cccc(CN2CCC(n3c(C4CC4)nc4ccc(C(c5ccc(Cl)cc5)c5ccc(Cl)cc5)cc43)CC2)c1O` [Example 79] are 32.6 nM and 5090 nM.
For `O=C(O)c1cc(CN2CCC(n3c(C4CC4)nc4ccc(C(c5ccc(Cl)cc5)c5ccc(Cl)cc5)cc43)CC2)ccc1F` [Example 95] the same measures were 11.2 nM and over 10000 nM.
Consider `Cc1nc2ccc(C(c3ccc(Cl)cc3)c3nc(C(F)(F)F)cs3)cc2n1Cc1ccc(Cl)cc1` (stereo not drawn) [Example 455], for which the values for the half-maximal effective concentration (EC50) in assay [1] and in assay [2] were 2410 nM and over 7400 nM, respectively.
For `CCOC(=O)N1CCC(n2c(C3CCOCC3)nc3ccc(C(c4ccc(Cl)cc4)c4nccs4)cc32)CC1` (stereo not drawn) [Example 412] the same measures were 623 nM and over 10000 nM.
Take `Cc1cc(C(N)=O)sc1S(=O)(=O)N1CCC(n2c(C3CC3)nc3ccc(C(c4ccc(Cl)cc4)c4ccc(Cl)cc4)cc32)CC1` [Example 215]: the concentration giving a half-maximal response (EC50) in assay [1] is 2 nM; in assay [2], over 10000 nM.
Regarding `CC(C)c1nc2ccc(C(c3ccc(Cl)cc3)c3nccs3)cc2n1C1CCN(S(=O)(=O)C(F)(F)F)CC1` (stereo not drawn) [Example 397], the EC50 in assay [1] and in assay [2] was over 10000 nM throughout.
`O=C(O)Cc1cccc(N2CCC(n3c(C4CC4)nc4ccc(C(c5ccc(Cl)cc5)c5ccc(Cl)cc5)cc43)CC2)c1` [Example 158]: the results for the concentration giving a half-maximal response (EC50) in assay [1] and in assay [2] were 67.9 nM and 5800 nM, respectively.
For `CCOC(=O)N1CCC(n2c(N)nc3ccc(C(c4ccc(Cl)cc4)c4nccs4)cc32)CC1` (stereo not drawn) [Example 440], the figures for the EC50 in assay [1] and in assay [2] were 999 nM and over 10000 nM, respectively.
Take `CC(c1cccc(C(=O)O)c1)N1CCC(n2c(C3CC3)nc3ccc(C(c4ccc(Cl)cc4)c4ccc(Cl)cc4)cc32)CC1` (stereo not drawn) [Example 87]: the EC50 in assay [1] was 9 nM; in assay [2], 9000 nM.
The corresponding values for `NCCS(=O)(=O)N1CCC(n2c(C3CC3)nc3ccc(C(c4ccc(Cl)cc4)c4ccc(Cl)cc4)cc32)CC1` [Example 46] are 450 nM and over 42000 nM.
For `O=C(O)c1ccc(O)c(CN2CCC(n3c(C4CC4)nc4ccc(C(c5ccc(Cl)cc5)c5ccc(Cl)cc5)cc43)CC2)c1` [Example 82] the same measures were 995 nM and over 42000 nM.
For `O=C(O)c1ccc(-c2cccc(CCn3c(C4CC4)nc4ccc(C(c5ccc(Cl)cc5)c5ccc(Cl)cc5)cc43)c2)cc1` [Example 17] the same measures were 82.9 nM and 9400 nM.
Consider `CCOC(=O)N1CCC(n2c(C3CNC3)nc3ccc(C(c4ccc(Cl)cc4)c4nccs4)cc32)CC1` (stereo not drawn) [Example 414], for which the results for the EC50 in assay [1] and in assay [2] were 1490 nM and over 10000 nM, respectively.
The corresponding values for `NS(=O)(=O)c1cccc(C(=O)N2CCC(n3c(C4CC4)nc4ccc(C(c5ccc(Cl)cc5)c5ccc(Cl)cc5)cc43)CC2)c1` [Example 229] are 13.7 nM and 1780 nM.
`O=C(O)c1ccc(-c2ccc(CCn3c(C4CC4)nc4ccc(C(c5ccc(Cl)cc5)c5ccc(Cl)cc5)cc43)cc2)cc1` [Example 25]: the concentration giving a half-maximal response (EC50) was 1650 nM in assay [1] and over 10000 nM in assay [2].
For the compound `NC(=O)c1ccc(C(=O)N2CCC(n3c(C4CC4)nc4ccc(C(c5ccc(Cl)cc5)c5ccc(Cl)cc5)cc43)CC2)cc1` [Example 254], the EC50 in assay [1] was 36.6 nM; in assay [2] it was 1250 nM.
What is called IC50 is the concentration at which inhibition is half-maximal. On to `O=S(=O)(c1cccc(NCCOCCOCc2ccccc2)c1)N1CCC(n2c(C3CC3)nc3ccc(C(c4ccc(Cl)cc4)c4ccc(Cl)cc4)cc32)CC1` [compound of formula (II), N-(2-(2-(benzyloxy)ethoxy)ethyl)-3-((4-(6-(bis(4-chlorophenyl)methyl)-2-cyclopropyl-1H-benzo[d]imidazol-1-yl)piperidin-1-yl)sulfonyl)aniline], for which the IC50 in assay [1] (first line of the list, HEK-293 cells, cAMP, 250 nM Forskolin) was 13.5 nM; in assay [2] (second line, the sentence announces activity against CB-1 and CB-2, read-out: CB-1 receptor: IC50 (second line of the list)) it was over 10000 nM.
On to `O=C(O)c1ccnc(N2CCC(Cn3c(C4CC4)nc4ccc(C(c5ccc(Cl)cc5)c5ccc(Cl)cc5)cc43)CC2)n1` [Example 2], for which the concentration for a half-maximal effect (EC50) is 479 nM in assay [1] and 5030 nM in assay [2].
Consider `CC(Cc1ccc(Cl)cc1)n1c(C(F)F)nc2ccc(C(c3ccc(Cl)cc3)c3nccs3)cc21` (stereo not drawn) [Example 329], for which the EC50 in assay [1] is 379 nM; in assay [2], over 10000 nM.
For `COC(=O)c1cnc(N2CCC(Cn3c(C4CC4)nc4ccc(C(c5ccc(Cl)cc5)c5ccc(Cl)cc5)cc43)CC2)nc1` [Example 5] the same measures were 33 nM and 632 nM.
The corresponding values for `Oc1ccc(Cn2c(C3CC3)nc3ccc(C(c4ccc(Cl)cc4)c4ccc(Cl)cc4)cc32)cc1` [Example 183] are 31.4 nM and 6300 nM.
The corresponding values for `Clc1ccc(CCn2c(C3CC3)nc3ccc(C(c4ccc(Cl)cc4)c4nccs4)cc32)cc1` (stereo not drawn) [Example 338] are 59.7 nM and 4000 nM.
As to `O=S(=O)(c1cc(Cl)c(O)c(Cl)c1)N1CCC(n2c(C3CC3)nc3ccc(C(c4ccc(Cl)cc4)c4ccc(Cl)cc4)cc32)CC1` [Example 222], the EC50 in assay [1] came out at 11 nM; in assay [2] it was 4960 nM.
Regarding `FC(F)(F)c1nc2ccc(C(c3ccc(Cl)cc3)c3nccs3)cc2n1CCc1cccc(Cl)c1` (stereo not drawn) [Example 424], the values for the 50% effective concentration (EC50) in assay [1] and in assay [2] were 2320 nM and over 10000 nM, respectively.
For `O=C(O)CCc1nc2ccc(C(c3ccc(Cl)cc3)c3ccc(Cl)cc3)cc2n1C1CCN(S(=O)(=O)C(F)(F)F)CC1` [Example 78] the same measures were 151 nM and over 21000 nM.
The corresponding values for `O=C(O)COc1ccc(N2CCC(n3c(C4CC4)nc4ccc(C(c5ccc(Cl)cc5)c5ccc(Cl)cc5)cc43)CC2)cc1` [Example 152] are 1590 nM and 6400 nM.
For `Cc1ccc(C(c2ccc(Cl)cc2)c2ccc3nc(C4CC4)n(C4CCN(Cc5cccc(C(=O)O)c5)CC4)c3c2)cc1` (stereo not drawn) [Example 100], the EC50 in assay [1] came to 19.4 nM; in assay [2] it was 6300 nM.
The corresponding values for `COc1cccc(-n2c(C3CC3)nc3ccc(C(c4ccc(Cl)cc4)c4ccc(Cl)cc4)cc32)c1` [Example 181] are 25 nM and over 10000 nM.
For `NC(=O)c1cc(S(=O)(=O)N2CCC(n3c(C4CC4)nc4ccc(C(c5ccc(Cl)cc5)c5ccc(Cl)cc5)cc43)CC2)ccc1F` [Example 217] the same measures were 9.2 nM and over 10000 nM.
For `COC(=O)c1ccc(OCCn2c(C3CC3)nc3ccc(C(c4ccc(Cl)cc4)c4ccc(Cl)cc4)cc32)cc1` [Example 36] the same measures were 85.4 nM and 869 nM.
In the case of `NC(=O)CS(=O)(=O)N1CCC(n2c(C3CC3)nc3ccc(C(c4ccc(Cl)cc4)c4ccc(Cl)cc4)cc32)CC1` [Example 247], the concentration giving a half-maximal response (EC50) was 128 nM in assay [1] and over 10000 nM in assay [2].
